Measurements published in patent US10604554B2, “Double-acylated GLP-1 derivatives” (Novo Nordisk A/S, priority 2012, dated 2020).

Experiments:
[1] = Pharmacokinetic (PK) study in minipig; details: male, Göttingen, in vivo, iv
human GLP-1 receptor = target: T1, human GLP-1 receptor (Homo sapiens, UniProt P43220); experiment: In vitro potency (AlphaScreen cAMP, membranes); format: biochemical
T1 construct: expressed in transfected cells; host or cells: BHK cells, clone FCW467-12A/KZ10-1 (parent line BHKTS13), further transfected with CRE luciferase
Method: The purpose of this example is to test the activity, or potency, of the GLP-1 derivatives in vitro.
Purified plasma membranes from a stable transfected cell line, BHK467-12A (tk-ts13), expressing the human GLP-1 receptor were stimulated with the GLP-1 analogue or derivative in question, and the potency of cAMP production was measured using the AlphaScreen™ cAMP Assay Kit from Perkin Elmer Life Sciences. The basic principle of the AlphaScreen Assay is a competition between endogenous cAMP and exogenously added biotin-cAMP. The capture of cAMP is achieved by using a specific antibody conjugated to acceptor beads.
A stable transfected cell line and a high expressing clone were selected for screening. The cells were grown at 5% CO2 in DMEM, 5% FCS, 1% Pen/Strep (Penicillin/Streptomycin) and 0.5 mg/ml of the selection marker G418.
Cells at approximately 80% confluence were washed 2× with PBS and harvested with Versene (aqueous solution of the tetrasodium salt of ethylenediaminetetraacetic acid), centrifuged 5 min at 1000 rpm and the supernatant removed. The additional steps were all performed on ice. The cell pellet was homogenised by the Ultrathurax for 20-30 s in 10 ml of Buffer 1 (20 mM Na-HEPES, 10 mM EDTA, pH=7.4), centrifuged 15 min at 20,000 rpm and the pellet resuspended in 10 ml of Buffer 2 (20 mM Na-HEPES, 0.1 mM EDTA, pH=7.4). The suspension was homogenised for 20-30 s and centrifuged 15 min at 20,000 rpm. Suspension in Buffer 2, homogenisation and centrifugation was repeated once and the membranes were resuspended in Buffer 2. The protein concentration was determined and the membranes stored at −80° C. until use.
The assay was performed in flat-bottom 96-well plates (Costar cat. no:3693). The final volume per well was 50 μl.
AlphaScreen cAMP Assay Kit from Perkin Elmer Life Sciences (cat. No: 6760625M); containing Anti-cAMP Acceptor beads (10 U/μl), Streptavidin Donor beads (10 U/μl) and Biotinylated-cAMP (133 U/μl).
AlphaScreen Buffer, pH=7.4: 50 mM TRIS-HCl (Sigma, cat.no: T3253); 5 mM HEPES (Sigma, cat.no: H3375); 10 mM MgCl2, 6H2O (Merck, cat.no: 5833); 150 mM NaCl (Sigma, cat.no: S9625); 0.01% Tween (Merck, cat.no: 822184). The following was added to the AlphaScreen Buffer prior to use (final concentrations indicated): BSA (Sigma, cat. no. A7906): 0.1%; IBMX (Sigma, cat. no. 15879): 0.5 mM; ATP (Sigma, cat. no. A7699): 1 mM; GTP (Sigma, cat. no. G8877): 1 uM.
cAMP standard (dilution factor in assay=5): cAMP Solution: 5 μL of a 5 mM cAMP-stock+495 μL AlphaScreen Buffer.
Membranes were prepared from hGLP-1/BHK 467-12A cells with a concentration of 6 μg/well corresponding to 0.6 mg/ml (the amount of membranes used pr. well may vary)
“No membranes”: Acceptor Beads (15 μg/ml final) in AlphaScreen buffer
“6 μg/well membranes”: membranes+Acceptor Beads (15 μg/ml final) in AlphaScreen buffer
An aliquot (10 μl) of “No membranes” was added to the cAMP standard (per well in duplicate wells) and the positive and negative controls
An aliquot (10 μl) of “6 μg/well membranes” was added to GLP-1 and analogues (per well in duplicate or triplicate wells)
Pos. Control: 10 μl “no membranes”+10 μl AlphaScreen Buffer
Neg. Control: 10 μl “no membranes”+10 μl cAMP Stock Solution (50 μM)
As the beads are sensitive to direct light, any handling was in the dark (as dark as possible), or in green light. All dilutions were made on ice.
1. Make the AlphaScreen Buffer.
2. Dissolve and dilute the GLP-1/Analogues/cAMP standard in AlphaScreen Buffer.
3. Make the Donor Beads Solution by mixing streptavidin donor beads (2 units/well) and biotinylated cAMP (1.2 units/well) and incubate 20-30 min in the dark at room temperature
4. Add the cAMP/GLP-1/Analogues to the plate: 10 μl per well.
5. Prepare membrane/Acceptor Beads solution and add this to the plates: 10 μl per well.
6. Add the Donor Beads: 30 μl per well.
7. Wrap the plate in aluminum foil and incubate on the shaker for 3 hours (very slowly) at RT.

[2] = Pharmacokinetic (PK) study in rat; details: male, Sprague Dawley, in vivo, iv, 6 nmol/kg
Method: The purpose of this Example is to investigate half-life in vivo in rat.
In vivo pharmacokinetic studies in rats were performed with the GLP-1 derivatives of a number of the Example compounds, as described in the following.
Male Sprague Dawley rats of same age with a body weight of approximately 400 g were obtained from Taconic (Denmark) and assigned to the treatments by simple randomisation on body weight, approximately 4 rats per group.
The GLP-1 derivatives (approximately 6 nmol/ml) were dissolved in 50 mM sodium phosphate, 145 mM sodium chloride, 0.05% tween 80, pH 7.4. Intravenous injections (1.0 ml/kg) of the compounds were given with a syringe in the tail vein of conscious rats. Blood was sampled from vena sublingualis for 5 days post dosing. Blood samples (200 μl) were collected in EDTA buffer (8 mM) and then centrifuged at 4° C. and 10000 G for 5 minutes. Plasma samples were kept at −20° C. until analyzed for plasma concentration of the respective GLP-1 compound.
The donor beads were coated with streptavidin, while acceptor beads were conjugated with a monoclonal antibody recognising a mid-/C-terminal epitope of the peptide. Another monoclonal antibody, specific for the N-terminus, was biotinylated. The three reactants were combined with the analyte and formed a two-sited immuno-complex. Illumination of the complex released singlet oxygen atoms from the donor beads, which were channeled into the acceptor beads and triggered chemiluminescence which was measured in an Envision plate reader. The amount of light was proportional to the concentration of the compound.
Plasma concentration-time profiles were analyzed using Phoenix WinNonLin ver. 6.2, Pharsight Inc., Mountain View, Calif., USA), and the half-life (T1/2) calculated using individual plasma concentration-time profiles from each animal.

T1 sequence (P43220 24-463): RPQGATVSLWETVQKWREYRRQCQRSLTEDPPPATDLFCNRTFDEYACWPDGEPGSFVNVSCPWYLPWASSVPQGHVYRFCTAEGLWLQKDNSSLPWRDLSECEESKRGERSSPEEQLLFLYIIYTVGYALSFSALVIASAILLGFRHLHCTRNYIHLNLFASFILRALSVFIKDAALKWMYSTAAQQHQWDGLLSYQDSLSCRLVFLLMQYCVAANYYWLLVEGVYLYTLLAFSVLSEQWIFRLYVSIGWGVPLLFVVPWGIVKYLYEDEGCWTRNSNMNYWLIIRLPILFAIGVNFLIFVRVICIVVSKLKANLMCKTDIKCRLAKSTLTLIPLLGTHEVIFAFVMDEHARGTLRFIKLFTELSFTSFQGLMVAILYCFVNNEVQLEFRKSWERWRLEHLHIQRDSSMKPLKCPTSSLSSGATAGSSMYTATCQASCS

CC[C@H](C)[C@H](NC(=O)[C@H](Cc1ccccc1)NC(=O)[C@H](CCC(=O)O)NC(=O)[C@H](CCCCNC(=O)[C@@H](N)CCCCNC(=O)COCCOCCNC(=O)COCCOCCNC(=O)CC[C@H](NC(=O)CCCCCCCCCCCOc1ccc(C(=O)O)cc1)C(=O)O)NC(=O)[C@H](C)NC(=O)[C@H](C)NC(=O)[C@H](CCC(N)=O)NC(=O)CNC(=O)[C@H](CCC(=O)O)NC(=O)[C@H](CC(C)C)NC(=O)[C@H](Cc1ccc(O)cc1)NC(=O)[C@H](CO)NC(=O)[C@H](CO)NC(=O)[C@@H](NC(=O)[C@H](CC(=O)O)NC(=O)[C@H](CO)NC(=O)[C@@H](NC(=O)[C@H](Cc1ccccc1)NC(=O)[C@@H](NC(=O)CNC(=O)[C@H](CCC(=O)O)NC(=O)C(C)(C)NC(=O)[C@@H](N)Cc1c[nH]cn1)[C@@H](C)O)[C@@H](C)O)C(C)C)C(=O)N[C@@H](C)C(=O)N[C@@H](Cc1c[nH]c2ccccc12)C(=O)N[C@@H](CC(C)C)C(=O)N[C@H](C(=O)N[C@@H](CCCNC(=N)N)C(=O)NCC(=O)N[C@@H](CCCNC(=N)N)C(=O)N[C@@H](CCCCNC(=O)[C@@H](N)CCCCNC(=O)COCCOCCNC(=O)COCCOCCNC(=O)CC[C@H](NC(=O)CCCCCCCCCCCOc1ccc(C(=O)O)cc1)C(=O)O)C(=O)O)C(C)C [Example 14, N^ε26-[(2S)-2-amino-6-[[2-[2-[2-[[2-[2-[2-[[(4S)-4-carboxy-4-[12-(4-carboxyphenoxy)dodecanoylamino]butanoyl]amino]ethoxy]ethoxy]acetyl]amino]ethoxy]ethoxy]acetyl]amino]hexanoyl], N^ε37-[(2S)-2-amino-6-[[2-[2-[2-[[2-[2-[2-[[(4S)-4-carboxy-4-[12-(4-carboxyphenoxy)dodecanoylamino]butanoyl]amino]ethoxy]ethoxy]acetyl]amino]ethoxy]ethoxy]acetyl]amino]hexanoyl]-[Aib^8,Arg^34, Lys^37]-GLP-1-(7-37)-peptide]
half-life [1]: 88 h
EC50 (human GLP-1 receptor): 0.28 nM
half-life [2]: 19 h

CC[C@H](C)[C@H](NC(=O)[C@H](Cc1ccccc1)NC(=O)[C@H](CCC(=O)O)NC(=O)[C@H](CCCCNC(=O)[C@@H](N)CCCCNC(=O)[C@@H](N)CCCCNC(=O)CC[C@H](NC(=O)CCCCCCCCCOc1ccc(C(=O)O)cc1)C(=O)O)NC(=O)[C@H](C)NC(=O)[C@H](C)NC(=O)[C@H](CCC(N)=O)NC(=O)CNC(=O)[C@H](CCC(=O)O)NC(=O)[C@H](CC(C)C)NC(=O)[C@H](Cc1ccc(O)cc1)NC(=O)[C@H](CO)NC(=O)[C@H](CO)NC(=O)[C@@H](NC(=O)[C@H](CC(=O)O)NC(=O)[C@H](CO)NC(=O)[C@@H](NC(=O)[C@H](Cc1ccccc1)NC(=O)[C@@H](NC(=O)CNC(=O)[C@H](CCC(=O)O)NC(=O)C(C)(C)NC(=O)[C@@H](N)Cc1c[nH]cn1)[C@@H](C)O)[C@@H](C)O)C(C)C)C(=O)N[C@@H](C)C(=O)N[C@@H](Cc1c[nH]c2ccccc12)C(=O)N[C@@H](CC(C)C)C(=O)N[C@H](C(=O)N[C@@H](CCCNC(=N)N)C(=O)NCC(=O)N[C@@H](CCCNC(=N)N)C(=O)N[C@@H](CCCCNC(=O)[C@@H](N)CCCCNC(=O)[C@@H](N)CCCCNC(=O)CC[C@H](NC(=O)CCCCCCCCCOc1ccc(C(=O)O)cc1)C(=O)O)C(=O)O)C(C)C [Example 1, N^ε26-[(2S)-2-amino-6-[[(2S)-2-amino-6-[[(4S)-4-carboxy-4-[10-(4-carboxyphenoxy)decanoylamino]butanoyl]amino]hexanoyl]amino]hexanoyl], N^ε37-[(2S)-2-amino-6-[[(2S)-2-amino-6-[[(4S)-4-carboxy-4-[10-(4-carboxyphenoxy)decanoylamino]butanoyl]amino]hexanoyl]amino]hexanoyl]-[Aib^8, Arg^34,Lys^37]-GLP-1-(7-37)-peptide]
EC50 (human GLP-1 receptor): 0.059 nM
half-life [2]: 14 h
